Patent US20250179066A1, “ZWITTERIONIC ANTIBACTERIAL COMPOUNDS” (Hoffmann-La Roche Inc., priority 2022, published 2025)
Where a name gives a salt, the structure may show the parent alone.

Test system: Acinetobacter baumannii ATCC17961
Test: Antimicrobial susceptibility testing: 90% growth inhibitory concentration (IC90) determination
Format: cell-based
Settings: Acinetobacter baumannii, ATCC17961, 16 h, 90% growth inhibitory concentration against Acinetobacter baumannii ATCC17961, Iso-Sensitest broth, OD 600 nm over 16 h; read-out: ATCC 17961 IC90
How it was run: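 Twofold serial dilutions (e.g. 10 to 0.0195 μM final) in Iso-Sensitest broth inoculated at ~5×10^5 CFU/mL, incubated at 35±2° C. OD600 read every minute for 16 h; IC90 is the concentration inhibiting 90% of growth during logarithmic phase.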

Row | IC90 [µM] | SMILES
1 | 0.338 | Cc1cc(NC(=O)c2ncc(-c3cn(-c4ccc5[nH]c([C@H](C)O)cc5n4)nc3C(F)(F)F)n2C)ccc1C(=O)N1CCN(C(=O)[C@H]2CC[N@@+](CCCN)(CC(=O)O)CC2)CC1 [Example 101, cis-2-[1-(3-aminopropyl)-4-[4-[4-[[5-[1-[2-[(1S)-1-hydroxyethyl]-1H-pyrrolo[3,2-b]pyridin-5-yl]-3-(trifluoromethyl)pyrazol-4-yl]-1-methyl-imidazole-2-carbonyl]amino]-2-methyl-benzoyl]piperazine-1-carbonyl]piperidin-1-ium-1-yl]acetic acid;chloride]
2 | 0.0881 | CNc1ccc(-n2cc(-c3cnc(C(=O)Nc4ccc(C(=O)N5CCN(C(=O)[C@H]6CC[N@+](CC(=O)O)(CC7CNC7)CC6)CC5)c(Cl)c4)n3C)c(C(F)(F)F)n2)c(F)c1 [Example 176, cis-2-[1-(azetidin-3-ylmethyl)-4-[4-[2-chloro-4-[[5-[1-[2-fluoro-4-(methylamino)phenyl]-3-(trifluoromethyl)pyrazol-4-yl]-1-methyl-imidazole-2-carbonyl]amino]benzoyl]piperazine-1-carbonyl]piperidin-1-ium-1-yl]acetic acid. 1:1 formate]
3 | 0.5 | Cn1c(-c2cn(-c3ccc(NC[C@H]4COCCN4)cn3)nc2C(F)(F)F)cnc1C(=O)Nc1ccc(C(=O)N2CCN(C(=O)C3CC[N+](CC(=O)O)(CC4CNC4)CC3)CC2)c(Cl)c1 (stereo partly drawn) [Example 47, 2-[1-(azetidin-3-ylmethyl)-4-[4-[2-chloro-4-[[1-methyl-5-[1-[5-[[(3S)-morpholin-3-yl]methylamino]-2-pyridyl]-3-(trifluoromethyl)pyrazol-4-yl]imidazole-2-carbonyl]amino]benzoyl]piperazine-1-carbonyl]piperidin-1-ium-1-yl]acetic acid. 1:1 2,2,2-trifluoroacetic acid. 1:1 2,2,2-trifluoroacetate]
4 | 1.1 | C[C@H]1CN(C(=O)c2ccc(NC(=O)c3ncc(-c4cn(-c5ccc(N)cn5)nc4C(F)(F)F)n3C)cc2Cl)CCN1C(=O)C1CC[N+](CC(=O)O)(CC2CNC2)CC1 (stereo partly drawn) [Example 77, 2-[4-[(2S)-4-[4-[[5-[1-(5-amino-2-pyridyl)-3-(trifluoromethyl)pyrazol-4-yl]-1-methyl-imidazole-2-carbonyl]amino]-2-chloro-benzoyl]-2-methyl-piperazine-1-carbonyl]-1-(azetidin-3-ylmethyl)piperidin-1-ium-1-yl]acetic acid. 1:1 formate]
5 | 0.35 | Cn1c(-c2cn(-c3ccc(NCC4(N)CCCC4)cn3)nc2C(F)(F)F)cnc1C(=O)Nc1ccc(C(=O)N2CCN(C(=O)C3CC[N+](CC(=O)O)(CC4CNC4)CC3)CC2)c(Cl)c1 (stereo not drawn) [Example 24, 2-[4-[4-[4-[[5-[1-[5-[(1-aminocyclopentyl)methylamino]-2-pyridyl]-3-(trifluoromethyl)pyrazol-4-yl]-1-methyl-imindazole-2-carbonyl]amino]-2-chloro-benzoyl]piperazine-1-carbonyl]-1-(azetidin-3-ylmethyl)piperidin-1-ium-1-yl]acetic acid. 1:1 2,2,2-trifluoroacetic acid. 1:1 2,2,2-trifluoroacetate]
6 | 1.62 | Cn1c(-c2cn(-c3ccc(N)cn3)nc2C(F)(F)F)cnc1C(=O)Nc1ccc(C(=O)N2CC3CC4(C(=O)C5CC[N+](CC(=O)O)(CC6CNC6)CC5)CC(C2)N34)c(Cl)c1 (stereo not drawn) [Example 92, 2-[4-[3-[4-[[5-[1-(5-amino-2-pyridyl)-3-(trifluoromethyl)pyrazol-4-yl]-1-methyl-imidazole-2-carbonyl]amino]-2-chloro-benzoyl]-3,9-diazabicyclo[3.3.1]nonane-9-carbonyl]-1-(azetidin-3-ylmethyl)piperidin-1-ium-1-yl]acetic acid. 1:1 formate]
